Data set [1] deals with MERS-CoV spike protein (S1 subunit, His tag) (Middle East respiratory syndrome-related coronavirus, UniProt K9N5Q8). As to the kind of experiment: biochemical. Type of data set: binding.
For data set [2], the target named is SARS-CoV spike protein (S1 subunit, His tag) (Severe acute respiratory syndrome coronavirus, UniProt P59594). Put plainly: biochemical. Type of data set: binding.
Data set [3] has as its target SARS-CoV-2 spike protein (S1 subunit, His tag) (Severe acute respiratory syndrome coronavirus 2, UniProt P0DTC2). As to the kind of experiment: biochemical. In kind it is binding.
The target in data set [4] is SARS-CoV-2 S-RBD/ACE2 interaction (Severe acute respiratory syndrome coronavirus 2, UniProt P0DTC2). In kind it is cell-based.
The subject of data set [5] is mouse aorta smooth muscle cells (MASMCs). As to the kind of experiment: MTT cell toxicity assay, MASMCs. The conditions noted are these: at high concentrations (100 μM). (In general: Tetrazolium assays rely on reduction of a dye to a coloured formazan, in cell work by metabolically active cells.)

This note sets out measurements from PMC7531286 (Phytomedicine, 2020).

Chain of MERS-CoV spike protein (S1 subunit, His tag) (K9N5Q8 18-751 limits assumed): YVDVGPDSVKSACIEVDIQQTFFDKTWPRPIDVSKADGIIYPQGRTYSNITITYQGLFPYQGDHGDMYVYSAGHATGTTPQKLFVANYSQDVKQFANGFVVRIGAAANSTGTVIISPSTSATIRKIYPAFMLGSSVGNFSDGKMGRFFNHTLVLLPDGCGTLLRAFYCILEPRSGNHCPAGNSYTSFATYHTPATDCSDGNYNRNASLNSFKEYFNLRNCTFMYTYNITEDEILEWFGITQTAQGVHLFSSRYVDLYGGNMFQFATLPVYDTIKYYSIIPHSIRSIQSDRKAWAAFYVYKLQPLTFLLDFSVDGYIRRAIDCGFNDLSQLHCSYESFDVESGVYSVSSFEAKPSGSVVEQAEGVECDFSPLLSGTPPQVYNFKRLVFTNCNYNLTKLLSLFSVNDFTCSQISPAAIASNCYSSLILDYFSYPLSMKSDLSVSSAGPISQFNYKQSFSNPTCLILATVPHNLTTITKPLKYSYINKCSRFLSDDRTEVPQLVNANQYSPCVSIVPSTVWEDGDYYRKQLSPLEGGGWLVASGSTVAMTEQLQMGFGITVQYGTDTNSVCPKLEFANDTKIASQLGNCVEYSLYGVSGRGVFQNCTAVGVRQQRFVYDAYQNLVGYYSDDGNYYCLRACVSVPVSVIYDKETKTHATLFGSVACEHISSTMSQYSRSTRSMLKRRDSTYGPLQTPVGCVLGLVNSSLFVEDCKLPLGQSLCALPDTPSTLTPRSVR

By Kd is commonly meant the constant that tells how readily two partners part at equilibrium. Lower therefore signals higher affinity. In the case of `CC(C)=CCC[C@](C)(O[C@@H]1O[C@H](CO[C@@H]2O[C@H](CO)[C@@H](O)[C@H](O)[C@H]2O)[C@@H](O)[C@H](O)[C@H]1O)[C@H]1CC[C@]2(C)[C@@H]1[C@H](O)C[C@@H]1[C@@]3(C)CC[C@H](O[C@@H]4O[C@H](CO)[C@@H](O)[C@H](O)[C@H]4O[C@@H]4O[C@H](CO)[C@@H](O)[C@H](O)[C@H]4O)C(C)(C)[C@@H]3CC[C@]12C` [ZZY-9, Ginsenoside Rb1], the dissociation constant (Kd) in data set [1] came out at 3.45 µM; in data set [2] it was 29.7 µM; in data set [3], 0.47 µM.

For the compound `CC(C)=CCC[C@](C)(O[C@@H]1O[C@H](CO[C@@H]2OC[C@@H](O)[C@H](O)[C@H]2O)[C@@H](O)[C@H](O)[C@H]1O)[C@H]1CC[C@]2(C)[C@@H]1[C@H](O)C[C@@H]1[C@@]3(C)CC[C@H](O[C@@H]4O[C@H](CO)[C@@H](O)[C@H](O)[C@H]4O[C@@H]4O[C@H](CO)[C@@H](O)[C@H](O)[C@H]4O)C(C)(C)[C@@H]3CC[C@]12C` [ZZY-13, Ginsenoside Rb3], the Kd in data set [1] is 0.25 µM; in data set [2], 2 µM; in data set [3], 1 µM. Also, the “Disruption of the SARS-CoV-2 S-RBD/ACE2 interaction in cells” value in data set [4] is on record as “could disrupt”. Besides, in data set [5], the “Cell toxicity to MASMCs” value was “no cell toxicity”.

`CC1(C)[C@@H](O[C@H]2O[C@H](C(=O)O)[C@@H](O)[C@H](O)[C@H]2O[C@@H]2O[C@H](C(=O)O)[C@@H](O)[C@H](O)[C@H]2O)CC[C@]2(C)[C@H]3C(=O)C=C4[C@@H]5C[C@@](C)(C(=O)O)CC[C@]5(C)CC[C@@]4(C)[C@]3(C)CC[C@@H]12` [ZZY-44, Glycyrrhizic acid]: the dissociation constant (Kd) in data set [1] stood at 0.47 µM; in data set [2], 66.8 µM. Moreover, the “Disruption of the SARS-CoV-2 S-RBD/ACE2 interaction in cells” value in data set [4] was “could disrupt”. Moreover, the “Cell toxicity to MASMCs” value in data set [5] is “no cell toxicity”.

As to `COc1ccc2cc3[n+](cc2c1OC)CCc1cc2c(cc1-3)OCO2` [ZZY-54, Berberine Chloride], the dissociation constant Kd in data set [1] is 7.39 µM; in data set [2], 23.9 µM; in data set [3], 1.24 µM.
